pIC50: −log10 of the molar value. The source made the active and inactive calls. The rule behind the calls is not given here.

The assay deals with P. yoelii liver stage in HepG2-A16-CD81EGFP, imaging. Put plainly: Plasmodium liver-stage growth inhibition, dose response, imaging, Malaria Box, P. yoelii, HepG2-A16-CD81EGFP (AID 602156).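 Note: infected cells exposed to compound for 48 hours before fixation.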
One may read the pIC50 as the IC50 on a negative log10 scale, so that one unit is a factor of ten. Consider `Cc1[nH]c2ccccc2c(=O)c1CC=C(Cl)Cl`, for which the pIC50 is 6.89. Take `CC(C)c1nc(N2CCN(C(=O)Nc3ccccc3)CC2)c(C#N)c2c1COC(C)(C)C2`: the pIC50 was 5.99. The same measure, in the same setting: in the case of `Cc1nc([P+](c2ccccc2)(c2ccccc2)c2ccccc2)c(N2CCCCC2)o1` it was 7.08; in that of `CN1CCN(c2ccc(Nc3c4ccccc4nc4ccccc34)cc2)CC1`, 6.26; in that of `COc1cccc(NC(=O)c2ccc(NCCCN3CC(C)CC(C)C3)c([N+](=O)[O-])c2)c1` (centres undefined), 6.36.

With `CC[n+]1c(C=C2C=Cc3cc(C)ccc3N2C)sc(C)c1C`, the pIC50 is 7.95. For the compound `Cc1nc([P+](c2ccccc2)(c2ccccc2)c2ccccc2)c(SCc2ccccc2)o1`, the pIC50 is 7.47. Same read-out and setting: in the case of `O=[N+]([O-])c1cccc(C(Nc2nccs2)c2ccc3cccnc3c2O)c1` (centres undefined) it was 6.45.

In general, IC50 refers to the concentration at which inhibition is half-maximal. As to `Cc1cccc(C)c1N(CC(=O)NCc1ccco1)S(C)(=O)=O`, the IC50 is > 10000 nM (inactive). Consider `c1ccc(OCCOc2ccc(Nc3ccnc4cc5ccccc5cc34)cc2)cc1`, for which the pIC50 is 7.17. Still for that read-out and setting: in the case of `CCCCCc1ccc(OCCCC[n+]2cccc(C)c2)c(CCCCC)c1` it was 7.46.

As for `COc1ccc(Nc2cc(C)nc(NCc3ccccc3)n2)cc1`, the pIC50 was 6.20. Same read-out and setting: in the case of `COc1ccc2[nH]c3ccccc3c(=O)c2c1` it was 6.87. As for `CCCCSCC(O)CN1CCCCC1` (centres undefined), the IC50 is > 10000 nM (inactive). For the compound `CCc1cc2c(cc1-c1csc(N=C(N)N)n1)C(C)(C)CCC2(C)C`, the pIC50 is 5.54.

Consider `O=C(c1cnsn1)N1CCCC(COc2cccc(CN3CCC(Cc4ccccc4)CC3)c2)C1` (centres undefined), for which the pIC50 is 6.22. As for `Cc1ccc(-c2c[n+]3c(n2-c2ccccc2)SCC3)cc1`, the pIC50 is 5.96. Still for that read-out and setting: to `Cc1[nH]c2c(C)cccc2c(=O)c1CC=C(Cl)Cl` belongs 6.77; to `COc1cccc(CNC(=O)C2CNCC2c2ccc(C(F)(F)F)cc2)c1` (centres undefined), 6.07.

Take `N#CCSc1nc2ccccc2c2nc(CCc3c[nH]c4ccccc34)nn12`: the IC50 is > 10000 nM (inactive).

As to `Cc1cc(Nc2cccc(F)c2)nc(NCc2ccccc2)n1`, the negative logarithm of the IC50 (pIC50) is 5.96. Regarding `O=c1c2c(nc3cc(-c4ccc(Br)cc4)[nH]n13)CCCC2`, the pIC50 is 6.30. Still for that read-out and setting: in the case of `Oc1cccc(Nc2nc(NCC3CCCO3)c3ccccc3n2)c1` (centres undefined) it was 5.98.

Regarding `CC(c1nc2ccccc2c(=O)n1C)N1CCN(C(=O)C(C)(C)C)CC1` (centres undefined), the pIC50 is 6.31.

`CCCN(CCC)[P+](CCC)(c1ccc([P+](CCC)(N(CCC)CCC)N(CCC)CCC)cc1)N(CCC)CCC`: the pIC50 is 6.55.

For the compound `c1ccc(-c2nn(-c3ccccc3)[n+](-c3ccccc3)n2)cc1`, the pIC50 was 6.97. `CCOc1ccc(Nc2nc(NCc3ccccc3)c3ccccc3n2)cc1`: the negative-log IC50 (pIC50) was 6.32. The same measure, in the same setting: in the case of `CN(C)c1ccc(C(C=C2C=C(c3ccccc3)C=C(c3ccccc3)O2)=C2C=CC(=[N+](C)C)C=C2)cc1` it was 7.28; in that of `CCOC(=O)C1=C(c2ccccc2)N=c2sc(=Cc3cc(C)n(-c4ccc(F)cc4)c3C)c(=O)n2C1c1cccc(OC)c1OC` (centres undefined), 5.61. The same measure, in the same setting: in the case of `O=[N+]([O-])c1cc(C(F)(F)F)ccc1N1CCCN(C(=S)Nc2ccccc2)CC1` it was 5.65; in that of `CC(C)NCC(O)Cn1c2ccc(Cl)cc2c2cc(Cl)ccc21` (centres undefined), 5.53.

As for `Cc1oc2c(c1C(=O)NC1CCS(=O)(=O)C1)C(=O)c1ccccc1C2=O` (centres undefined), the pIC50 was 8.64. Take `CCOC(=O)c1ccc(OCC2c3cc(OC)c(OC)cc3CCN2C(=O)c2ccc([N+](=O)[O-])cc2)cc1` (centres undefined): the IC50 is > 10000 nM (inactive).

In the case of `O=C(Nc1ccc(C(F)(F)F)cc1)c1ccc(NCCCN2CCCCCC2)c([N+](=O)[O-])c1`, the pIC50 is 6.35.

For `CCOc1ccc(CN(C(=O)COc2ccc(Cl)cc2)C(C)CCCN(CC)CC)cc1` (centres undefined), the pIC50 was 7.69.

For `CC(=O)N(C1=C(N(C)C)C(=O)c2ccccc2C1=O)c1ccc(F)cc1`, the pIC50 is 7.24. In the case of `Cc1ccc(CSCc2ccc(C(=O)NC3CC3)o2)cc1`, the pIC50 was 7.33. Still for that read-out and setting: to `CCOC(=O)c1c(CSc2ccccc2)oc2cc(CN(C)C)c(O)c(Cl)c12` belongs 5.14; to `CCOC(=O)C1=C(C)NC2=C(C(=O)C(C(=O)OCC)C(c3ccccc3OC)C2)C1c1ccc([N+](=O)[O-])cc1` (centres undefined), 6.47.

`O=C(c1ccc2nc(N3CCCCC3)sc2c1)N1CCN(Cc2ccc3c(c2)OCO3)CC1`: the IC50 was > 9220 nM (inactive). As to `CCOC(=O)c1c[nH]c2c3c(ccc2c1=O)CCCC3`, the pIC50 was 7.97. On the same count and under the same terms, to `O=c1c2ccccc2[nH]c2ccc(F)cc12` belongs 6.65. As for `Cc1ccc(NC(=O)C2C3C=CC4(O3)C2C(=O)N(CCCN2CCOCC2)C4C(=O)NC2CCCC(C)C2C)cc1Cl` (centres undefined), the IC50 is > 10000 nM (inactive).

Turning to `Cc1nc2cc(-c3ccc(I)cc3)[nH]n2c(=O)c1C`, the pIC50 is 6.93.

For the compound `O=C(c1cccc([N+](=O)[O-])c1)c1ccc(Cl)c(Cl)c1`, the pIC50 is 5.42. In the case of `O=C(Nc1c2ccccc2nc2ccccc12)c1cc(Cl)ccc1O`, the pIC50 is 6.74. The same measure, in the same setting: in the case of `CCCc1c(C)[nH]c2ccccc2c1=O` it was 6.55.

As to `Oc1c(CN2CCN(Cc3ccc4cccnc4c3O)CC2)ccc2cccnc12`, the pIC50 was 7.02.

For `CC(=O)N(C)C1=C(N2CCCC2)C(=O)c2ccccc2C1=O`, the pIC50 is 5.31. Take `FC(F)(F)c1ccccc1NC(=S)N1CCCN(c2nc3ccc(Cl)cc3s2)CC1`: the pIC50 is 5.79.

As to `COc1cccc(Nc2nc(NCCO)c3ccccc3n2)c1`, the pIC50 is 7.21. Turning to `COC(=O)C1=CNC=C(C(=O)OC)C1c1cc(OC)c(OC)c(OC)c1`, the IC50 is > 10000 nM (inactive). As to `c1ccc(CNc2nc(Nc3ccccc3)nc3ccccc23)cc1`, the pIC50 is 6.82.

Take `NC(Cc1ccccc1)C(=O)N1CCn2c(nc(-c3ccccc3)c2Nc2ccc3c(c2)OCO3)C1` (centres undefined): the pIC50 was 8.73. Same read-out and setting: to `COc1cc(C(=O)N2N=C(c3c(-c4ccccc4)c4cc(Br)ccc4[nH]c3=O)CC2c2cccc([N+](=O)[O-])c2)cc(OC)c1OC` (centres undefined) belongs 6.36; to `Oc1cccc2ccc(Nc3ccccn3)nc12`, 6.85. The same measure, in the same setting: to `CCC(/C=C1\Sc2ccc(OC)cc2N1CCCS(=O)(=O)O)=C\c1sc2ccc(OC)cc2[n+]1CCCS(=O)(=O)O` belongs 7.95; to `C=CC[N+]1(CC#Cc2cccc3ccccc23)CCCCC1`, 6.04; to `COc1ccc(C2N(Cc3ccccc3)c3ccccc3N2Cc2ccccc2)cc1`, 6.92.

`CCc1nc(N)nc(N)c1-c1ccc(Cl)cc1`: the pIC50 is 8.67. Same read-out and setting: in the case of `CCOC(=O)c1cn(CC)c2cc(N(C)CCc3ccc(OC)c(OC)c3)c(F)cc2c1=O` it was 7.38. With `O=C(Cc1cccs1)N1CCN(c2ccccn2)CC1`, the IC50 is > 10000 nM (inactive). As for `CCn1c(/C=C/C=C2\N(C)c3ccccc3C2(C)C)[n+](Cc2ccccc2)c2ccccc21`, the pIC50 is 8.17. `O=C(O)Cn1cnc2nc3n(c2c1=O)CCC3`: the IC50 was > 765 nM (inactive). Consider `CCc1ccccc1N=C1c2c(cccc2[N+](=O)[O-])C(=O)C1C(C)=O` (centres undefined), for which the pIC50 was 5.69.

For `CCN1CCN(c2cc(C)c3cc(NC(=O)c4cc(OC)cc(OC)c4)ccc3n2)CC1`, the pIC50 is 5.43. Still for that read-out and setting: in the case of `O=c1c2c([nH]c3ccccc13)CCCC2` it was 6.30; in that of `Cc1ccc2nc3nc4c(C)cccc4c(N)c3cc2c1`, 7.32. On the same count and under the same terms, to `O=C(Nc1ccc(-c2ccc(Cl)cc2)cc1)c1cccs1` belongs 6.82; to `O=C1C2=C(Nc3ccccc3SC2c2ccccc2)c2ccccc21` (centres undefined), 7.03. In the case of `CCc1ccccc1NC(C)=O`, the IC50 is > 10000 nM (inactive). Consider `c1ccc(-c2csc(Nc3nc4cc5c(cc4s3)OCO5)n2)nc1`, for which the pIC50 was 7.10. Turning to `CCCCC(CC)C(=O)N1CCN(C(CC)c2nc3ccccc3c(=O)n2C)CC1` (centres undefined), the pIC50 was 6.64. Take `COc1ccc(C2Sc3ccccc3NC3=C2C(=O)c2ccccc23)cc1` (centres undefined): the pIC50 is 6.15. Same read-out and setting: to `CCCCN(CC)CCNC(=O)C1c2ccccc2C(=O)N(Cc2ccc(F)cc2)C1c1ccc(OC)cc1` (centres undefined) belongs 7.05; to `Cc1ccc(Nc2cc(C)nc(NCc3ccccc3)n2)c(C)c1`, 5.89. As for `CC(=O)Nc1ccc(-c2nc(-c3ccc(Oc4ccc(-c5[nH]c(-c6ccc(NC(C)=O)cc6)nc5-c5ccccc5)cc4)cc3)c(-c3ccccc3)[nH]2)cc1`, the IC50 was > 3730 nM (inactive). Take `COc1ccc2sc(Nc3nc(-c4ccccn4)cs3)nc2c1`: the pIC50 is 6.80. As to `COc1ccc(C2CC(=O)C3=C(C2)NC(C)=C(C(=O)OC2CCCC2)C3c2cccc(C)c2)cc1OC` (centres undefined), the pIC50 was 6.11. Consider `CCN(CC)c1ccc(NC(=O)c2cccs2)cc1`, for which the pIC50 is 6.40.

Turning to `CN1C(=O)N(C)C(NNC(N)=S)C1NNC(N)=S` (centres undefined), the pIC50 is 7.82. Consider `CCOC(=O)C1(CC)CC(C)(C(=O)C[n+]2cccc(Br)c2)OC1=O` (centres undefined), for which the IC50 was > 10000 nM (inactive).

On to `O=C(NC1CC1)C1CCN(c2cccc3c2C(=O)N(Cc2cccc(C(F)(F)F)c2)C3=O)CC1`, for which the pIC50 is 7.53. Take `Nc1nonc1-n1nnc(C(=O)NN=Cc2ccc(F)c(Br)c2)c1-c1ccc([N+](=O)[O-])cc1`: the IC50 is > 10000 nM (inactive).

As for `COc1cccc(C(=O)NC(c2ccccc2OC)c2cc(Cl)c3cccnc3c2O)c1` (centres undefined), the pIC50 is 6.26. As for `CCc1noc(C)c1C(=O)NCCN1Cc2ccccc2OC(c2ccsc2)C1` (centres undefined), the IC50 was > 10000 nM (inactive). Turning to `CCCC(=O)N1CCN(c2nc(Cc3ccccc3)c3c(c2C#N)CC(C)(C)OC3)CC1`, the pIC50 was 6.46. For `COc1cncc(-c2cncc(-c3ccc(C)cc3)n2)c1`, the IC50 is > 10000 nM (inactive).

As for `Clc1ccccc1-c1nc([P+](c2ccccc2)(c2ccccc2)c2ccccc2)c(N2CCOCC2)o1`, the pIC50 is 7.02. Regarding `CCCCCCOc1ccc(C(C)=NNC2=NCCN2)cc1[N+](=O)[O-]`, the pIC50 is 6.11.

Turning to `COc1ccc2nc(C)cc(Nc3ccc(Cl)c(Cl)c3)c2c1`, the negative logarithm of the IC50 (pIC50) is 6.36. On the same count and under the same terms, in the case of `CCN1CCN(c2c(C(=O)c3ccccc3)cnc3cc(OC)c(OC)cc23)CC1` it was 6.44; in that of `COC(OC)C(C)=NNC(N)=S`, 8.31; in that of `Cc1ccc(-n2c(-c3ccccc3)cc(C=NNC(=O)c3cccc(O)c3)c2-c2ccccc2)cc1`, 7.69.

These data come from PubChem BioAssay AID602156 (GNF / Scripps Winzeler lab, 2011).
